Measured values from patent US5976848A, “Method of identifying potential fungicides using dihydroorotate dehydrogenase inhibition assay” (priority 1992, dated 1999).
Values after ≈ are worked out from the molar mass of the structure shown. “Also recorded” adds a separate entry of the source.

Columns and labels:
Botrytis cinerea = assay: greenhouse tests against Botrytis cinerea; type: in vivo
DHOD = DHOD in vitro tests; type: biochemical
Aspergillus nidulans [1] = assay: growth inhibition of Aspergillus nidulans; type: cell-based
Aspergillus nidulans [2] = assay: physiological and biochemical responses of Aspergillus nidulans treated with CCFQ; type: cell-based
Text: The physiological and biochemical responses caused by the experimental fungicide CCFQ are not characteristic of known modes of action. […] It causes an unusual effect on synthesis of nucleic acids in that incorporation of radiolabelled precursors is stimulated by treatment with CCFQ. […] Some media supplements overcame growth inhibition by CCFQ. […] All these observations are consistent with the primary target of CCFQ being an electron-transferring enzyme in the pyrimidine biosynthetic pathway. […] This is a novel fungicidal mode of action, and its discovery opens the opportunity to detect novel chemical compounds that attack the same target.

Cephalosiorium = assay: sensitivity of Cephalosporium to CCFQ; type: cell-based
Penicillium digitalum = assay: greenhouse tests against Penicillium digitalum; type: in vivo
Neurospora = assay: sensitivity of Neurospora to CCFQ; type: cell-based
[3] = molecular target: T1, DHOD produced by mutant Aspergillus nidulans strains resistant to CCFQ (Aspergillus nidulans, UniProt G5EB61); assay: inhibition of DHOD produced by CCFQ-resistant mutant strains; type: biochemical; details: DHOD from resistant mutant A. nidulans
T1 construct: V200E (preferred, MNNG, FGSC612) or A115V (EMS, FGSC610)
T1 sequence (G5EB61 1-520): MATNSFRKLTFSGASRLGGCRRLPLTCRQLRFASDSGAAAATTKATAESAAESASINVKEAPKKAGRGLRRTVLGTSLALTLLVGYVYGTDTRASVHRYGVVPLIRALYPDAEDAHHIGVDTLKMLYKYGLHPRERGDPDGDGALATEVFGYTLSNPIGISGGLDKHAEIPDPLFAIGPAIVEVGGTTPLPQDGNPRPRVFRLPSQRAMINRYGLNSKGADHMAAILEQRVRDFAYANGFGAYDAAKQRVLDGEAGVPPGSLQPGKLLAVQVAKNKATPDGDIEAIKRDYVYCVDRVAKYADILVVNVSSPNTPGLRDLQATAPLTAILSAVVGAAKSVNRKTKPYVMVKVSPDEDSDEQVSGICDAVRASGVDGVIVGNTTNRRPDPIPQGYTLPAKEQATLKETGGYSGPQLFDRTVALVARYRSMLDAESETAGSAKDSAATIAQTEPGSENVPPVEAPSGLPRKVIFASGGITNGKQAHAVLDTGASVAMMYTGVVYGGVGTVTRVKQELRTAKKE

[4] = treatment of Aspergillus nidulans

Compound: Fc1ccc(Oc2ccnc3c(Cl)cccc23)c(Cl)c1 [CCFQ, 8-chloro-4-(2-chloro-4-fluorophenoxy)quinoline]
- inhibition of Botrytis cinerea (Botrytis cinerea; 50 μg/ml, greenhouse tests): completely inhibits
- inhibition of growth of Botrytis cinerea (Botrytis cinerea; no concentration stated): completely inhibits
- sensitivity of DHOD to CCFQ (DHOD): extremely sensitive
- IC50 (Aspergillus nidulans [1]; against Aspergillus nidulans, read-out: IC50 (concentration that inhibits growth by 50%)): 0.15 µg/mL (≈ 0.487 µM)
- inhibition of growth of Aspergillus (Aspergillus nidulans [1]; no concentration stated): inhibits the growth
- reversal of growth inhibition by media supplements (Aspergillus nidulans [2]; combination of uracil and a free radical scavenger such as α-tocopherol): complete reversal
- change in amino acid content (Aspergillus nidulans [2]; [4]): no significant changes
- change in lipid composition (Aspergillus nidulans [2]; [4]): no significant changes
- change in protein accumulation (Aspergillus nidulans [2]; [4]): no significant changes
- change in respiration (Aspergillus nidulans [2]; [4]): no significant changes
- effect on cell wall synthesis (Aspergillus nidulans [2]; [4]): perturbs cell wall synthesis in a non-specific manner
- incorporation of radiolabelled precursors (synthesis of nucleic acids) (Aspergillus nidulans [2]; [4]): stimulated
- sensitivity to CCFQ / growth inhibition (Cephalosiorium): inhibits the growth; also recorded: sensitive
- inhibition of Penicillium digitalum (Penicillium digitalum; 50 μg/ml, greenhouse tests): completely inhibits
- inhibition of growth of Penicillium digitalum (Penicillium digitalum; no concentration stated): completely inhibits
- sensitivity to CCFQ / growth inhibition (Neurospora): inhibits the growth; also recorded: sensitive
- inhibition of DHOD of CCFQ-resistant mutant strains [3]: resistant to inhibition
